Structures can show the parent of a compound that is named as a salt.

The term IC50 denotes the concentration needed to halve the response being measured.

The subject of the test is pMAPKAPK2. As to the kind of experiment: Inhibition of p-MAPKAPK2 in vitro (anisomycin-stimulated RAW 264.7 cells, ELISA). The format is cell-based, murine. To be noted: Mus musculus, RAW264.7, p-MAPKAPK2 in vitro, read-out: IC50. The procedure:
RAW 264.7 cells (a murine monocytic/macrophage line ATCC) are seeded at a density of 50,000 cells/well in 96-well plates with RPMI-1640 medium plus 10% fetal bovine serum (FBS) and allowed to settle and adhere to the bottom of the well for 48 hours. After reaching confluence, cells are treated for 2 hours with 10 serial dilutions of different compounds. A control compound is always included. After 2 hours, anisomicin (100 ug/ml) is added and cells are incubated for 30 minutes at 37° C. under a 5% CO2 atmosphere. Then, cells are fixed and treated with hydrogen peroxide in order to remove endogenous peroxidase. Finally, plates are blocked with FBS, washed, and an ELISA assay is carried out by using an antiphospho-MAPKAPK2 (Thr 334, Cell Signalling, Cat # 3041) antibody and ahP-Conjugated Secondary Antibody. This reaction is detected by using FEMTO (Pierce) which is an enhanced chemiluminiscent substrate ahP that results in rapid kinetic light output and high signal intensity. The compound exemplified in Example 12 is tested essentially as described above and is found to inhibit the pMAPKAPK2 enzyme production with an IC50 of 7 nM.
A general note: In an ELISA, binding on a coated surface is turned into a signal by an enzyme label.

As to `Cc1ccc(-n2nc(C3(C)CC3)cc2NC(=O)Nc2cnc(N3CCN(C(=O)C4CC4)CC3)c3ccccc23)cc1` [Example 1, 1-[1-(4-Cyclopropanecarbonyl-piperazin-1-yl)-isoquinolin-4-yl]-3-[5-(1-methyl-cyclopropyl)-2-p-tolyl-2H-pyrazol-3-yl]-urea], the half-inhibitory concentration (IC50) is 0.044 µM.

As to `Cc1ccc(-n2nc(C3(C)CC3)cc2NC(=O)Nc2cnc(N3CCN(C(=O)c4c(F)cccc4F)CC3)c3ccccc23)cc1` [Example 3, 1-{1-[4-(2,6-Difluoro-benzoyl)-piperazin-1-yl]-isoquinolin-4-yl}-3-[5-(1-methyl-cyclopropyl)-2-p-tolyl-2H-pyrazol-3-yl]-urea], the half-maximal inhibitory concentration (IC50) was 0.025 µM.

As for `COC1(c2cc(NC(=O)Nc3cnc(OC4CCN(C(=O)C5(C)CC5)CC4)c4ccccc34)n(-c3ccc(C)cc3)n2)CC1` [Example 9, 1-[5-(1-Methoxy-cyclopropyl)-2-p-tolyl-2H-pyrazol-3-yl]-3-{1-[1-(1-methyl-cyclopropanecarbonyl)-piperidin-4-yloxy]-isoquinolin-4-yl}-urea mesylate], the IC50 is 0.101 µM.

Take `Cc1ccc(-n2nc(C(C)(C)C)cc2NC(=O)Nc2cnc(OC3CCN(C(N)=O)CC3)c3ccccc23)cc1` [Example 23]: the IC50 worked out at 0.125 µM.

Values taken from patent publication US7582638B2, “Pyrazole-isoquinoline urea derivatives as p38 kinase inhibitors” (Eli Lilly and Company, priority 2005, dated 2009).
